From patent US20130230486A1, “COMPOSITIONS AND METHODS TO INDUCE TARGETED APOPTOSIS” (priority 2010, published 2013)

Tests used:
PTPN13 [1] = test: PTPN13 protein expression by Western blot in lung fibroblasts; assay type: cell-based, human; conditions: normal, fibrotic and MRC5 fibroblasts; TNF-α 10 ng/ml, IFN-γ 50 U/ml; 36 hours
Method: (§1) To assess the effects of these cytokines on PTPN13 expression, non-diseased normal human lung fibroblasts (NHLF), fibrotic human lung fibroblasts (FHLF) and a fetal lung fibroblast cell line, MRC5 cells, were treated with TNF-α (10/ng/ml), IFN-γ (50 U/ml) or with both cytokines for 6 hours. PTPN13 expression was measured by quantitative PCR (FIG. 2A). The primary lung fibroblasts from normal and fibrotic lung had equivalent levels of PTPN13 expression to the MRC5 lung fibroblast cell line. […] Treatment with TNF-α alone caused a 40% decrease in PTPN13 expression. Combined exposure to TNF-α and IFN-γ decreased PTPN13 mRNA expression by 80%. Protein lysates from normal, fibrotic and MRC5 fibroblasts treated for 36 hours with TNF-α (10/ng/ml), IFN-γ (50 U/ml) or with both cytokines were then analyzed for PTPN13 expression. […]
In one exemplary method, to assess whether PTPN13 expression prevents Fas-induced apoptosis, PTPN13 expression was knocked-down using siRNA. […] Apoptosis was assayed by quantifying activation of caspase-3 and caspase-8 (FIG. 3C).
FIG. 3: Decreased PTPN13 expression sensitizes fibroblasts to Fas-induced apoptosis. […] PTPN13 expression was quantified by western blot analysis and densitometry was performed. […] Fas activating antibody (250 ng/ml) (Fas activating antibody) or PBS (unstimulated) was added for 2 hours before analyzing Caspase-8 activation by a fluorescence-based assay. c. […]

PTPN13 [2] = test: PTPN13 mRNA expression by quantitative PCR in lung fibroblasts; assay type: cell-based, human; conditions: NHLF, FHLF and MRC5, IFN-γ 50 U/ml, 6 hours
Method: as §1
FIG. 2: TNF-α and IFN-γ decrease PTPN13 expression. […] A. Top panel is a quantitative RT-PCR analysis of PTPN13 mRNA lower panel is a Western blot analysis for PTPN13 protein.B. Time course of PTPN13 mRNA expression following TNF-a (10 ng/ml) and IFN-g (50 U/ml) treatment. […] Caspase-8 was measured using a fluorescence based assay.
Total RNA was obtained from 1×10^6 MRC5 cells using the Qiagen RNA Miniprep Kit (Qiagen) following the manufacturer's instructions. […] The fluorescence values of the threshold cycles were collected and normalized to GAPDH. […]

murine model of fibrosis = test: Bleomycin murine model of fibrosis, mortality; assay type: in vivo, mouse; conditions: 2.5 U/kg bleomycin into the trachea
Method: To assess the effect of PTPN13 on development of fibrosis in vivo, we used a murine model of fibrosis in a PTPN13-/- mouse. The PTPN13-/- mouse has been characterized by Grusby to have abnormal STAT4 signaling which leads to augmented skewing toward TH1 or TH2 phenotypes. 2.5 U/kg bleomycin was administered directly into the tracheas of PTPN13-/- mice along with wildtype controls. […] Due to drastic weight decreases in the wildtype mice, two weeks was chosen as the end time point. […] Of the 20 wildtype mice treated with bleomycin, 11 (55%) died before two weeks as compared to the PTPN13-/- mice where three of the 20 (15%) died. Saline had no effect on mortality. Then static compliance was measured. The saline treated wildtype and PTPN13-/- mice had similar values of static compliance. […] Collagen content was measured in the lung using a hydroxyproline assay. […] To determine a possible cause for the decreased static compliance in the PTPN13-/- mice, we also measured other markers of lung disease, such as cellular infiltration and capillary leak. We measured the cellularity of the bronchoalveolar fluid (BALF). […] Capillary leak was determined by albumin present in the BALF (FIG. 6F). […] To validate these findings, stereology was performed on lung sections to quantify presence of collagen and diseased areas. […] Percentage of diseased lung was also measured by stereology. […]

| Substance | PTPN13 protein expression (Western blot) (PTPN13 [1]) | PTPN13 mRNA expression compared to untreated cells (in words) (PTPN13 [2]) | decrease in PTPN13 mRNA expression (PTPN13 [2]; TNF-α 10 ng/ml, compared to untreated cells) | mice that died before two weeks (murine model of fibrosis; PTPN13-/- mice, three of 20) | mice that died before two weeks (murine model of fibrosis; wildtype mice, 11 of 20) |
| --- | --- | --- | --- | --- | --- |
| IFN-γ: Recombinant human IFN-γ purchased from R&D Systems | not decreased | minimal decrease | – | – | – |
| TNF-α | decreased | – | 40% | – | – |
| bleomycin | – | – | – | 15% | 55% |
